From patent publication US6737039B2, “Methods for detecting lesions in dense breast tissue using LHRH antagonists” (Praecis Pharmaceutics, Inc., priority 1998, dated 2004)
Non-standard residues stand in square brackets, D forms with d. Residues, ends and D or L forms follow the SMILES beside them. dPhe(4-Cl) = N[C@H](Cc1ccc(Cl)cc1)C(=O)O; d2Nal = N[C@H](Cc1ccc2ccccc2c1)C(=O)O; Lys(iPr) = CC(C)NCCCC[C@H](N)C(=O)O; NMeY = CN[C@@H](Cc1ccc(O)cc1)C(=O)O; d3Pal = N[C@H](Cc1cccnc1)C(=O)O

Key:
[1] = system: plasma testosterone levels; experiment: eight intravenous doses every three hours, plasma testosterone; assay type: in vivo, rats
Experimental: (§1) Moreover, upon administration, PPI-149 rapidly reduces sex hormone levels to castrate levels. […] Testosterone levels returned to normal by 24 hours after the 300 μg/kg dose, but not until 72 hours after the 1000 μg/kg dose.

testosterone levels = experiment: continuous subcutaneous infusion via osmotic pump, testosterone; assay type: in vivo, rats
Experimental: as §1

[2] = system: plasma testosterone levels; experiment: single dose in male rats, plasma testosterone; assay type: in vivo
Experimental: as §1

Excerpt for histamine release: Histamine-releasing activity of an LHRH antagonist can be assayed by the method described in U.S. Pat. No. 4,851,385 to Roeske.

Q: How did the plasma testosterone levels ([1]; eight intravenous doses of 1 μg/kg every three hours (8 μg/kg/day)) turn out when `CC(=O)N[C@H](Cc1ccc2ccccc2c1)C(=O)N[C@H](Cc1ccc(Cl)cc1)C(=O)N[C@H](Cc1cccnc1)C(=O)N[C@@H](CO)C(=O)N(C)[C@@H](Cc1ccc(O)cc1)C(=O)N[C@H](CC(N)=O)C(=O)N[C@@H](CC(C)C)C(=O)N[C@@H](CCCCNC(C)C)C(=O)N1CCC[C@H]1C(=O)N[C@H](C)C(N)=O` [PPI-149, Ac-D-Nal^1,4-Cl-D-Phe^2, D-Pal^3, N—Me-Tyr^5, D-Asn^6, Lys(iPr)^8, D-Ala^10-LHRH] (Ac-[d2Nal][dPhe(4-Cl)][d3Pal]S[NMeY][dN]L[Lys(iPr)]P[dA]-NH2) was run?
A: significant decrease

Q: And the testosterone levels ([1]; eight intravenous doses of 10 μg/kg every three hours (80 μg/kg/day))?
A: castrate levels of testosterone were achieved

Q: And the “recovery of testosterone levels following pump removal” value (testosterone levels; after four weeks of continuous subcutaneous infusion)?
A: complete within two weeks

Q: What about the “time castration level was maintained by subsequent low doses” value (testosterone levels; after the high dose, 5, 15 or 50 μg/kg/day by continuous subcutaneous infusion) of the same molecule?
A: 21 days

Q: And the “time to castrate levels of testosterone” value (testosterone levels; continuous subcutaneous infusion, 300 or 1000 μg/kg/day for two weeks)?
A: ≤ 7 days

Q: And the histamine releasing activity (histamine release)?
A: low

Q: And the “time for testosterone levels to return to normal” value ([2]; single dose 300 μg/kg)?
A: ≤ 24 h

Q: And the “time for testosterone levels to return to normal” value ([2]; single dose 1000 μg/kg)?
A: 72 h

Q: And the plasma testosterone levels ([2]; single dose 300 or 1000 μg/kg, by 6 hours post-administration)?
A: decreased to nearly undetectable levels
